In patent publication US5877019A, “Animal 2-5A-dependent RNases and encoding sequences therefor” (Cleveland Clinic Foundation, priority 1996, dated 1999):
“Also recorded” adds a separate entry of the source.

Legend:
[1] = biological target: T1, 2-5A-dependent RNase (Homo sapiens, UniProt Q05823); test: Divalent cation and ATP effects on 2-5A-dependent RNase activity of dialyzed enzyme; format: biochemical; details: EDTA/EGTA buffer
T1 sequence (Q05823 1-741): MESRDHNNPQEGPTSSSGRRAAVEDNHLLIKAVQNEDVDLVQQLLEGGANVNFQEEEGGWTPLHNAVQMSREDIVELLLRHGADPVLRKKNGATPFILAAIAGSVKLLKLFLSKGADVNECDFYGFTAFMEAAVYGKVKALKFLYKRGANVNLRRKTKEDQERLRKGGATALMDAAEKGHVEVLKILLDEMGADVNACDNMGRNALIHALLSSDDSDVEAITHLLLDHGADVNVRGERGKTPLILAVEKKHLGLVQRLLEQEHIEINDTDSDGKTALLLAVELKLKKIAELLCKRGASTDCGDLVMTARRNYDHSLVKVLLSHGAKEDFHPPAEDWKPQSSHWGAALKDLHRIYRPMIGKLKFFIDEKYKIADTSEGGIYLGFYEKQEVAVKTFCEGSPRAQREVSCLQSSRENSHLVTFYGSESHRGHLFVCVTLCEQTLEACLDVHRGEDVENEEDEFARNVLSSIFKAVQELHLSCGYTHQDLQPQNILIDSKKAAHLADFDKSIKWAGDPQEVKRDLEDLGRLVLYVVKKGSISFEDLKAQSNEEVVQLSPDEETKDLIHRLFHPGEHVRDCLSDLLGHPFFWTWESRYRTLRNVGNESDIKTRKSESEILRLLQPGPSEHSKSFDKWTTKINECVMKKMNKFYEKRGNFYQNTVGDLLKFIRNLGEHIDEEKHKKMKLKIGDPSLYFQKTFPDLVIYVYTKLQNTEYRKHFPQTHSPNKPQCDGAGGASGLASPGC
Procedure: (§1) The divalent cation requirements of 2-5A-dependent RNase were determined after extensive dialysis against buffer containing both EDTA and EGTA. More particularly, purified 2-5A-dependent RNase (about 100 μg in 100 μl), post-mono Q column fraction, was dialyzed at 4° C. against 25 mM Tris-HCl (pH 7.4), 2.5 mM EDTA, 2.5 mM EGTA, 14 mM 2-mercaptoethanol, and 100 mM KCl (first against 400 ml for four hours, then against 600 ml for ten hours, and finally against 200 ml of reaction buffer (EDTA and EGTA were reduced to 0.5 mM) for another four hours.
(§2) Activity assays were also performed in the presence of EDTA/EGTA to ensure the chelation of metal ions present in the reagents. […] For the filter binding assay, a ^32 P-labeled and bromine substituted 2-5A analog, p(A2'p)2 (br^8 A2'p)2 A3'-32P]Cp, 10,000 counts per minute per assay, at about 3,000 Ci per mmole, was incubated with fractions containing 2-5A-dependent RNase (or controls) at 4° C. for one hour.

[2] = biological target: T1, 2-5A-dependent RNase; test: Divalent cation and ATP effects on 2-5A binding activity of dialyzed enzyme; details: EDTA/EGTA buffer
Procedure: as §1, §2

[3] = test system: murine 2-5A-dependent RNase; test: UV covalent crosslinking of 32P-2-5A probe in presence of unlabeled oligonucleotide competitors; format: binding; details: for competition with binding of the 2-5A probe: competitor 100 nM, recombinant 74 kDa protein (clone ZB1) in wheat germ extract, similar profile for L929 cell enzyme; for concentration of competitor that prevents 2-5A probe binding: probe 2.4 nM, both truncated recombinant (ZB1) and naturally occurring L cell protein
Procedure: FIG. 2A is a specific affinity of truncated murine 2-5A-dependent RNase for 2-5A. UV covalent crosslinking of the ^32 P-2-5A probe (lanes 1-7) to protein is performed after translation reactions in wheat germ extract (5 μl) with murine 2-5A-dependent RNase mRNA (from clone ZB1) (lanes 1-3) or without added RNA (lane 4) or in extract of interferon treated mouse L cells (100 μg of protein) (lanes 5-7). Reactions are without added competitor (lanes 1, 4, and 5) or in the presence of either trimer core. […] Lanes 8 and 9 are produced by incubating the wheat germ extract with ^35 S-methionine in the absence or presence of 2-5A-dependent RNase mRNA, respectively.
Autoradiograms of the dried SDS/10% polyacrylamide gels are shown. Concentrations of the oligonucleotide competitors are indicated. I is inosine.
The synthesis of the 2-5A probe, p(A2'p)2 (br^8 A2'p)2 A[32P]Cp, and its crosslinking to 2-5A-dependent RNase is performed exactly as described. See Nolan-Sorden, N. L. et al., Anal. Biochem., 184:298-304 (1990). Briefly, the 2-5A probe, about 0.7 to 2.5 nM at […], is incubated for about one hour on ice with cell extract prepared as described, Silverman, R. H. and Krause, D., I.R.L. Press, Oxford. England, pp. 149-193 (1987), in the absence or presence of unlabeled oligonucleotide competitors. Covalent crosslinking is done under a uv lamp (308 nm) for one hour on ice and the proteins are separated on SDS/10% polyacrylamide gels. Filter assays for 2-5A binding activity using the 2-5A probe for about one hour on ice, as described in Knight, M. et al., Nature, 288:189-192 (1980).

[4] = test system: human 2-5A-dependent RNase; details: purified enzyme, poly(rU) substrate; for concentration giving maximal activation of 2-5A-dependent RNase: 30 minutes 30° C.
Procedure: Assays were with 50 ng of superose 12 purified fractions of the 2-5A-dependent RNase at 30° C. for 30 minutes using 12 nM poly(rU)-^32 P[Cp] as substrate.
To determine the structural requirement of 2-5A required for activation of 2-5A-dependent RNase, ribonuclease activity against poly(rU) was determined as a function of oligonucleotide concentration. The purified 2-5A-dependent RNase was used in these assays.
(§3) RNA and DNA molecules used were poly(rU), poly(A), poly(G), poly(C), or poly(dT) from Pharmacia and were labeled at their 3'-termini with ^32 P-pCp (3,000 Ci per mmole) and T4 RNA ligase as described previously (Silverman, R. H., Anal. Biochem. 144, 450-460 1985). Fractions containing 2-5A-dependent RNase were incubated in the presence or absence of 100 nM of p3 (A2'p)3 A (or other oligonucleotides), 8 to 16 nM of ^32 P-labeled RNA in final volumes of 25 μls at 30° C. The trichloracetic acid-insoluble fraction of RNA was then determined by filtering on glass-fiber filters in the presence of carrier yeast tRNA as described previously (Silverman, R. H., Anal. Biochem. 144, 450-460 1985).

[5] = test system: human 2-5A-dependent RNase; test: UV covalent crosslinking of 2-5A probe in presence of competitors; format: binding; details: competitor 100 nM; recombinant human enzyme in wheat germ extract; same pattern in HeLa cell extract
Procedure: FIG. 5A is specific affinity of recombinant human 2-5A-dependent RNase for 2-5A. Crosslinking of the 2-5A probe (lanes 1-7) to protein is performed after translation reactions in wheat germ extract (5 μl) with human 2-5A-dependent RNase mRNA (lanes 1-3) or without added RNA (lane 4) or in extract of human interferon α treated (1000 units per ml for 16 h) human HeLa cells (350 μg of protein) (lanes 5-7). […] Incubations with ^35 S-methionine are shown in lanes 8 to 12. Lane 8 is with wheat germ extract and human 2-5A-dependent RNase mRNA. Reticulocyte lysate preadsorbed to 2-5A-cellulose is incubated with human 2-5A-dependent RNase mRNA in the absence (lane 9) or presence (lane 10) of cycloheximide, or in the absence of added mRNA (lane 11). […] The positions and relative molecular masses (in kDa) of the marker proteins are indicated.
The synthesis of the 2-5A probe, p(A2'p)2 (br^8 A2'p)2 A[32P]Cp, and its crosslinking to 2-5A-dependent RNase is performed exactly as described. See Nolan-Sorden, N. L. et al., Anal. Biochem., 184:298-304 (1990). Briefly, the 2-5A probe, about 0.7 to 2.5 nM at […], is incubated for about one hour on ice with cell extract prepared as described, Silverman, R. H. and Krause, D., I.R.L. Press, Oxford. England, pp. 149-193 (1987), in the absence or presence of unlabeled oligonucleotide competitors. […]

[6] = test system: human recombinant 2-5A-dependent RNase; test: 2-5A-dependent ribonuclease assay, crude extract of recombinant baculovirus-infected insect cells, poly(rU) degradation; details: activator at 100 nM, thirty minutes
Procedure: Crude cell extracts, containing 2 μg of protein, were incubated with 12 nM poly(rU)-^32 p[Cp] for 30 minutes at 30° C. in the presence of absence of 100 nM of tetramer 2-5A. RNA degradation was determined by measuring acid-insoluble fraction of RNA as described (Silverman, R. H. Anal. Biochem., 144:450-460 1985).
To measure the catalytic activity of the recombinant enzyme, ribonuclease assay was performed in the presence and absence of trimer 2-5A, p3 (A2'p)2 A. The degradation of radiolabeled poly(rU) to acid-soluble fragments was measured in this assay (Silverman, R. H., Anal. Biochem. 144,450-460 1985).
as §3

[7] = test system: 2-5A probe; test: 2-5A binding activity of nested 3'-deletion clones (filter binding and uv crosslinking); details: protein expressed in wheat germ extract
Description: See Example and Knight et al. (1980). The positions of the P-loop motifs and the lengths of the translation products are indicated. Clone ZB1 encodes for amino acids designated as 1-656 in Table II, except for the last 5 amino acid residues which are Lys, Pro, Leu, Ser, and Gly. Clone ZB2 encodes for amino acids designated as 1-619 in Table II. Clone ZB3 encodes for amino acids designated as 1-515 in Table II. Clone ZB5 encodes for amino acids designated as 1-474 in Table II. Clone ZB9 encodes for amino acids designated as 1-403 in Table II. Clone ZB10 encodes for amino acids designated as 1-365 in Table II. Clone ZB13 encodes for amino acids designated as 1-294 in Table II. Clone ZB14 encodes for amino acids designated as 1-265 in Table II. Clone ZB15 encodes for amino acids designated as 1-218 in Table II.
To further define sequences involved in 2-5A binding, nested 3'-deletions of the murine 2-5A-dependent RNase cDNA, clone ZB1, are constructed, transcribed in vitro, and expressed in a wheat germ extract. […] The levels of 2-5A binding activity are determined with the 2-5A probe in both a filter binding assay, Knight, M. et al., Nature, 288:189-192 (1980), and the uv crosslinking assay, Nolan-Sorden, N. L. et al., Anal. Biochem., 184:298-304 (1990), with similar results. Expression of clone ZB11, encoding amino acid residues 1 to 342, results in a loss of only about 26% of the 2-5A binding activity as compared to clone ZB1 (amino acids 1 to 656). Clones intermediate in length between ZB1 and ZB11 all result in significant levels of 2-5A binding activity. […] See also Saraste, M. et al., TIBS, 14:430-434 (1990).
The set of nested 3'-deletions of the truncated murine 2-5A-dependent RNase cDNA, ZB1, is generated with exonuclease III/S1 nuclease digestion followed by filling-in with Klenow DNA Polymerase using the "Erase-A-Base"system (Promega).
The synthesis of the 2-5A probe, p(A2'p)2 (br^8 A2'p)2 A[32P]Cp, and its crosslinking to 2-5A-dependent RNase is performed exactly as described. See Nolan-Sorden, N. L. et al., Anal. Biochem., 184:298-304 (1990). […]

Molecule: [Ca+2] [calcium]
- effect on 2-5A-dependent RNase activity [1]: no effect; also recorded: did not enhance ribonuclease activity
- effect on 2-5A-binding activity [2]: enhanced

Molecule: [Mg+2] [magnesium]
- effect on 2-5A-dependent RNase activity [1]: greatly stimulated
- effect on 2-5A-binding activity [2]: greatly stimulated

Molecule: [Mn+2] [manganese]
- effect on 2-5A-dependent RNase activity [1]: greatly stimulated
- effect on 2-5A-binding activity [2]: greatly stimulated

Molecule: [Zn+2] [zinc]
- effect on 2-5A-dependent RNase activity [1]: inhibitory
- effect on 2-5A-binding activity [2]: enhanced

Molecule: (A2'p)2 A
- fold higher concentration than trimer 2-5A required to prevent probe binding ([3]; both proteins): 500 fold
- competition with binding of the 2-5A probe [3]: fails to interfere
- concentration of competitor that prevents 2-5A probe binding [3]: 10 µM
- fold reduced activity as activator relative to 2-5A (5'-triphosphorylated trimer) [4]: more than 100 fold
- competition with binding of the 2-5A probe [5]: not prevented

Molecule: A(2'p5'A)3
- activation of 2-5A-dependent RNase (in words) [4]: enhanced activity

Molecule: A(2'p5'A)4
- activation of 2-5A-dependent RNase (in words) [4]: enhanced activity

Molecule: p3 (A2'p)2 A
- competition with binding of the 2-5A probe [3]: completely prevents probe binding
- concentration of competitor that prevents 2-5A probe binding [3]: about 20 nM
- RNA (poly(rU)) degraded [6]: 93%
- concentration giving maximal activation of 2-5A-dependent RNase [4]: 1 nM
- competition with binding of the 2-5A probe [5]: effectively competes

Molecule: p3 I2'pA2'pA
- concentration of competitor that prevents 2-5A probe binding [3]: about 1.0 μM
- activation of 2-5A-dependent RNase (in words) [4]: more than ten-fold less effective
- fold reduced activity as activator relative to 2-5A (5'-triphosphorylated trimer) [4]: 10 fold

Molecule: pA(2'p5'A)3
- concentration giving maximal activation of 2-5A-dependent RNase [4]: 1 nM

Molecule: pppA(2'p5'A)3
- concentration giving maximal activation of 2-5A-dependent RNase [4]: 1 nM

B1: clone ZB13: murine 2-5A-dependent RNase deletion, amino acids 1 to 294 (protein, UniProt Q05921 1-294, looked up, fragment)
chain: METPDYNTPQGGTPSAGSQRTVVEDDSSLIKAVQKGDVVRVQQLLEKGADANACEDTWGWTPLHNAVQAGRVDIVNLLLSHGADPHRRKKNGATPFIIAGIQGDVKLLEILLSCGADVNECDENGFTAFMEAAERGNAEALRFLFAKGANVNLRRQTTKDKRRLKQGGATALMSAAEKGHLEVLRILLNDMKAEVDARDNMGRNALIRTLLNWDCENVEEITSILIQHGADVNVRGERGKTPLIAAVERKHTGLVQMLLSREGINIDARDNEGKTALLIAVDKQLKEIVQLLLE
- 2-5A binding activity, % of the activity of clone ZB1 [7]: about 38.3%

B2: clone ZB11: murine 2-5A-dependent RNase deletion, amino acid residues 1 to 342 (protein, UniProt Q05921 1-342, looked up, fragment)
chain: METPDYNTPQGGTPSAGSQRTVVEDDSSLIKAVQKGDVVRVQQLLEKGADANACEDTWGWTPLHNAVQAGRVDIVNLLLSHGADPHRRKKNGATPFIIAGIQGDVKLLEILLSCGADVNECDENGFTAFMEAAERGNAEALRFLFAKGANVNLRRQTTKDKRRLKQGGATALMSAAEKGHLEVLRILLNDMKAEVDARDNMGRNALIRTLLNWDCENVEEITSILIQHGADVNVRGERGKTPLIAAVERKHTGLVQMLLSREGINIDARDNEGKTALLIAVDKQLKEIVQLLLEKGADKCDDLVWIARRNHDYHLVKLLLPYVANPDTDPPAGDWSPHSSRW
- loss of 2-5A binding activity as compared to clone ZB1 [7]: about 26%

B3: clone ZB15: murine 2-5A-dependent RNase deletion, amino acids 1 to 218, both P-loop motifs deleted (protein, UniProt Q05921 1-218, looked up, fragment)
chain: METPDYNTPQGGTPSAGSQRTVVEDDSSLIKAVQKGDVVRVQQLLEKGADANACEDTWGWTPLHNAVQAGRVDIVNLLLSHGADPHRRKKNGATPFIIAGIQGDVKLLEILLSCGADVNECDENGFTAFMEAAERGNAEALRFLFAKGANVNLRRQTTKDKRRLKQGGATALMSAAEKGHLEVLRILLNDMKAEVDARDNMGRNALIRTLLNWDCENV
- 2-5A binding activity, % of the activity of clone ZB1 [7]: completely lacking
